Data as given in PMC10733463, “Berberine-microbiota interplay: orchestrating gut health through modulation of the gut microbiota and metabolic transformation into bioactive metabolites” (Frontiers in Pharmacology, 2023).

Assays:
[1] = test system: B. coccoides (DSM 935); conditions: DSM 935, chicken, 10 µg/mL, pH 6
Protocol: (§1) Six strains were tested for their ability to convert berberine into berberine-demethylated metabolites. […] Strains were sub-cultured overnight in M2GSC medium pH 6. The next day, caecal content from a 3-week-old broiler chicken was sampled in anaerobic conditions and 1:1,000 diluted in M2GSC medium pH 6 containing 10 μg/mL berberine. Caecal mixtures were enriched with 1:100 diluted overnight cultures of single bacteria, or with M2GSC (control), and incubated in a 24-well plate, for 48 h. […] Samples were collected and processed as described before. Each bacterial strain was tested in triplicate at 37°C–40°C under anaerobic conditions.
(§2) The UPLC instrument consisted of an Acquity H-Class Quaternary Solvent Manager and an Acquity FTN Sample Manager (Waters, Berchem, Belgium). For chromatographic separation, an Acquity UPLC® HSS T3 column (1.8 µm, 100 mm × 2.1 mm i.d.) was used, protected by a precolumn of the same type (VanGuardTM, 5 mm × 2.1 mm i.d.), both from Waters. […] The column temperature was maintained at 25°C. The autosampler temperature was set at 10°C. The UPLC effluent was sent from 1.2 min to 9.5 min by use of a divert valve to a Xevo TQ-S® triple quadrupole mass spectrometer from Water, equipped with an ESI ion source operating in the positive ionization mode from. The UPLC-MS/MS analysis was run under control of MassLynx software (v4.1), which was used for subsequent data processing as well. For the injection of 1/5 diluted intestinal content samples (see section Preparation of intestinal content samples (ileum and caecum)), the divert valve was used in addition from 7.1 min to 8.4 min to deviate the high amount of berberine and associated IS berberine-d6 eluting in that time window from the UPLC column directly to the waste, rather than to the MS detector to avoid oversaturation of the instrument, influencing subsequent sample extract injections at well. Operating conditions for the ESI source used in the positive ionization mode were optimized by direct infusion of all individual components in combination with the mobile phase at 50% A/50% B delivered at a flow rate of 0.3 mL/min. The following tune parameters were used for detection of all components: capillary voltage, 3 kV, cone voltage, 10 V, source offset, 50 V, source temperature, 150°C, desolvation temperature, 500°C, desolvation gas flow, 800 L/h, cone gas flow, 150 L/h, collision gas flow, 0.2 mL/min, ion energy 1 and 2, 0.5, LM 1 and LM 2 resolution, 3, HM 1 and HM 2 resolution, 15. Components were detected in MS/MS mode using component specific MRM (Multiple Reaction Monitoring) transitions (Supplementary Table S1). Since a commercial standard of thalifendine was not available, MS/MS detection parameters and calibration of berberrubine were used for the detection and quantification of thalifendine, which is a reasonable approach, since both compounds are isomers. No commercial reference standards were available for phase II metabolites, therefore “calculated” MRM transitions were defined as follows: [M + -Gluc] > M+ for glucuronide forms and [M + -SO3] > M+ for sulfate forms, where the loss of glucuronic acid or sulfate corresponded to a mass shift of 176 Da or 80 Da respectively. Phase II metabolites were quantified relatively using the berberine calibration curve ([Wang et al., 2017a]; [Kwon et al., 2020]).

[2] = test system: Blautia hansenii (DSM 20583); conditions: DSM 20583, chicken, 10 µg/mL, pH 6
Protocol: as §1, §2

[3] = test system: Eubacterium limosum (LMG 28910); conditions: LMG 28910, chicken, 10 µg/mL, pH 6
Protocol: as §1, §2

[4] = test system: Blautia luti (DSM 14534); conditions: DSM 14534, chicken, 10 µg/mL, pH 6
Protocol: as §1, §2

[5] = test system: Blautia hydrogenotrophica (DSM 10507); conditions: DSM 10507, chicken, 10 µg/mL, pH 6
Protocol: as §1, §2

Row | Log2(fold change) of metabolite response at 48 h, culture with bacteria over control (berberine-medium + microbiota) [1] | Log2(fold change) of metabolite response at 48 h, culture with bacteria over control (berberine-medium + microbiota) [2] | Log2(fold change) of metabolite response at 48 h, culture with bacteria over control (berberine-medium + microbiota) [3] | Log2(fold change) of metabolite response at 48 h, culture with bacteria over control (berberine-medium + microbiota) [4] | Log2(fold change) of metabolite response at 48 h, culture with bacteria over control (berberine-medium + microbiota) [5] | SMILES
1 | -1.64 | -0.15 | -0.40 | -1.71 | -0.10 | COc1ccc2cc3[n+](cc2c1O)CCc1cc2c(cc1-3)OCO2 [Berberrubine, berberrubine chloride]
2 | -0.23 | -0.06 | 0.11 | -0.36 | 0.03 | COc1cc2c(cc1O)CC[n+]1cc3c(OC)c(OC)ccc3cc1-2 [Jatrorrhizine, Jatrorrhizine chloride]
